Data as given in US11524966B1 (Valo Early Discovery, Inc., priority 2017, dated 2022).

molecular target: T1, USP28 (His-tagged USP28-FL-mammalian) (Homo sapiens, UniProt Q96RU2); experiment: Ubiquitin-Rhodamine 110 Assay for USP28 Activity, Example A-1(a); assay type: biochemical; conditions: Ubiquitin-Rhodamine 110 assay, Example A-1(a); read-out: USP28 A-1(a) IC50 range
T1 construct: Expression of USP28 (1-1077)-TEV-6*His (pTT5 vector); made in house; host or cells: Expi293f cells (pTT5 vector)
T1 sequence (Q96RU2 1-1077): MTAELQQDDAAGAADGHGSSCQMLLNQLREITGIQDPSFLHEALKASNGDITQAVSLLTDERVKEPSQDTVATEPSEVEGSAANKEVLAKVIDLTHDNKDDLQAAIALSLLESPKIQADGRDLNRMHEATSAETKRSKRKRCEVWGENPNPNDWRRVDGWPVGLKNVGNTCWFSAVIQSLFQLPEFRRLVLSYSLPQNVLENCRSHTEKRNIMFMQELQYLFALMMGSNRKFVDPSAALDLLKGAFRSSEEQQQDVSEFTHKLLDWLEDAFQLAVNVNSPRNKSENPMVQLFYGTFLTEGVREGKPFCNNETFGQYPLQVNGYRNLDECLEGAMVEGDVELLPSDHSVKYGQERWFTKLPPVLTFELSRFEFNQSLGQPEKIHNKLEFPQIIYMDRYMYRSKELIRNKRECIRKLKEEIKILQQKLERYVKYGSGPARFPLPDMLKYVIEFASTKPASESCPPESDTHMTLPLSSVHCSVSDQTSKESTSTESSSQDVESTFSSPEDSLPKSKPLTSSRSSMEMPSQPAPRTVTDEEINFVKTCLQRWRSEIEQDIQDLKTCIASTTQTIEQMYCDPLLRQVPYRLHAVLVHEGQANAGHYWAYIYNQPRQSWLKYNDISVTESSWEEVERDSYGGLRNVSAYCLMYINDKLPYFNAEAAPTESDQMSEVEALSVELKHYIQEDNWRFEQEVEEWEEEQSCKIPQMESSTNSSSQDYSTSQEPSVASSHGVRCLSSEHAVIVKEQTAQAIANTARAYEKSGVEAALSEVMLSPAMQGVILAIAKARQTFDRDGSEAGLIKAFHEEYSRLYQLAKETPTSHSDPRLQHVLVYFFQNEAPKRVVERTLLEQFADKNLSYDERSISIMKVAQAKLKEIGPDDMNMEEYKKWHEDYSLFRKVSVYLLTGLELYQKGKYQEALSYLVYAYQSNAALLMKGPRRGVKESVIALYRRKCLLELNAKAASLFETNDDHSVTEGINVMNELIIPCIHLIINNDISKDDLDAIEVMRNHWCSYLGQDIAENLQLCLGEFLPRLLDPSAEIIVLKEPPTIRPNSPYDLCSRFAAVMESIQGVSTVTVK
Method: Example A-1(a): Biochemical Assay: Ubiquitin-Rhodamine 110 Assay for USP28 Activity
The assay was performed in a final volume of 9 μL in assay buffer containing 20 mM Tris-HCl (pH 8.0, (1M Tris-HCl, pH 8.0 solution; Corning 46-031-CM)), 3 mM BME (2-Mercaptoethanol; Sigma 63689-25ML-F), 0.03% BGG (0.22 μM filtered, Sigma, G7516-25G), and 0.01% Triton X-100 (Sigma, T9284-10L). Nanoliter quantities of 10-point, 3-fold serial dilution in DMSO was pre-dispensed into 1536 assay plates (Corning, #3724BC) for a final test concentration of 25 μM to 1.3 nM, top to lowest dose, respectively. Enzyme USP28, construct His-tagged USP28-FL-mammalian, (protein expression and purification procedure described below). Concentration and incubation times were optimized for the maximal signal-to-background while maintaining initial velocity conditions at a fixed substrate concentration. The final concentration of the enzyme in the assay was 75 μM. Final substrate (Ub-Rh110; Ubiquitin-Rhodamine 110, UbiQ-126) concentration was 25 nM with [Ub-Rh110]<<Km. 3 μL of 2× enzyme was added to assay plates (pre-stamped with compound) preincubated with […] for 30 minutes and then 3 μL of 2×Ub-Rh110 was added to assay plates. Plates were incubated for 45 minutes at room temperature before addition of 3 μL of stop solution (final concentration of 10 mM citric acid (Sigma, 251275-500G)). Fluorescence was read on the Envision (Excitation at 485 nm and Emission at 535 nm; Perkin Elmer) or on the PheraSTAR (Excitation at 485 nm and Emission at 535 nm; BMG Labtech).
Procedure for the Protein Expression and Purification for Construct His-Tagged USP28-FL-Mammalian
Expression of USP28 (1-1077)-TEV-6*His (pTT5 vector) was carried out in Expi293f cells (sequence derived from uniprot ID: Q96RU2-1). Cells were re-suspended in lysis buffer B 50 mM Bicine, pH 8.0, 20 mM NaCl, 5% glycerol, 0.1% CHAPS, 5 mM β-ME, 1 mM PMSF, 1 ug/ml Leupeptin, 1 ug/ml Pepstatin) and lysed by sonication. Insoluble material was removed by centrifugation and the supernatant was loaded onto a Ni-NTA column (GE Healthcare) equilibrated with Ni Buffer A (50 mM Bicine, pH 8.0, 20 mM NaCl, 5% glycerol, 0.1% CHAPS, 5 mM β-ME.) and washed with Ni Buffer A+20 mM imidazole until A280 reached baseline. The protein was eluted with Ni Buffer B (50 mM Bicine, pH 8.0, 20 mM NaCl, 5% glycerol, 0.1% CHAPS, 5 mM β-ME, 300 mM imidazole.). The protein was further purified using a Superdex™ 200 10/300 GL column (GE Healthcare) equilibrated with 50 mM Bicine, pH 8.0, 20 mM NaCl, 5% glycerol, 0.1% CHAPS, 5 mM β-ME. The protein was concentrated to 2.5 mg ml^−1, flash-frozen in liquid N2 and stored at −80° C.
For assay formats Example A-1(a), A-1(b), and A-2, data were reported as percent inhibition compared with control wells based on the following equation: % inh=1−((FLU−AveLow)/(AveHigh−AveLow)) where FLU=measured Fluorescence, AveLow=average Fluorescence of no enzyme control (n=16), and AveHigh=average Fluorescence of DMSO control (n=16). IC50 values were determined by curve fitting of the standard 4 parameter logistic fitting algorithm included in the Activity Base software package: IDBS XE Designer Model 205. Data is fitted using the Levenburg Marquardt algorithm.

Which IC50 does the source give for Cc1ccc2c(N)c(C(=O)N[C@@H]3CCc4nc(N5C[C@@H](N)[C@H](C(F)F)C5)ncc4C3)sc2n1 [Example 382, 3-amino-N-[(6R)-2-[(3S,4R)-3-amino-4-(difluoromethyl)pyrrolidin-1-yl]-5,6,7,8-tetrahydroquinazolin-6-yl]-6-methylthieno[2,3-b]pyridine-2-carboxamide] here?
The IC50 was 0.2 to 2 µM.

For CO[C@H]1CN(c2ncc3c(n2)CC[C@@H](NC(=O)c2sc4nc(C)cc(C)c4c2N)C3)C[C@@H]1N [Example 274, 3-amino-N-[(6R)-2-[(3S,4S)-3-amino-4-methoxypyrrolidin-1-yl]-5,6,7,8-tetrahydroquinazolin-6-yl]-4,6-dimethylthieno[2,3-b]pyridine-2-carboxamide], which IC50 is on record?
Its IC50 is 0.2 to 2 µM.

How did the IC50 turn out when Cc1ccc2c(N)c(C(=O)N(C)[C@@H]3COc4cc(N5CCNCC5)cc(F)c4C3)sc2n1 [Example 10-16, 3-amino-N-[(3S)-5-fluoro-7-(piperazin-1-yl)-3,4-dihydro-2H-1-benzopyran-3-yl]-N,6-dimethylthieno[2,3-b]pyridine-2-carboxamide] was run?
Its IC50 is > 2 µM.

How did the IC50 turn out when Cc1ccc2c(N)c(C(=O)N[C@@H]3CCc4nc(N5C[C@H](OC(C)C)[C@@H](N)C5)ncc4C3)sc2n1 [Example 272, 3-amino-N-[(6R)-2-[(3S,4S)-3-amino-4-(propan-2-yloxy)pyrrolidin-1-yl]-5,6,7,8-tetrahydroquinazolin-6-yl]-6-methylthieno[2,3-b]pyridine-2-carboxamide] was run?
The IC50 was 0.2 to 2 µM.

For Cc1ccc2c(N)c(C(=O)N[C@H]3CCc4nc(N5C[C@H](N)C6(C5)OCCO6)ccc4C3)sc2n1 (single isomer, unassigned) [Example 29-1], which IC50 is on record?
The IC50 was 0.2 to 2 µM.

With Cc1ccc2c(N)c(C(=O)N[C@H]3COc4cc(N5C[C@H](N)[C@H]6OCC[C@H]65)ccc4C3)sc2n1 [Example 426, N-[(3R)-7-[(3aR,6S,6aR)-6-amino-hexahydro-2H-furo[3,2-b]pyrrol-4-yl]-3,4-dihydro-2H-1-benzopyran-3-yl]-3-amino-6-methylthieno[2,3-b]pyridine-2-carboxamide] as the molecule, how does the IC50 read?
The IC50 was 0.001 to 0.05 µM.

Which IC50 does the source give for Cc1ccc2c(N)c(C(=O)N[C@H]3CCc4nc(N5C[C@@H]6CCN[C@H](C5)C6(F)F)ccc4C3)sc2n1 [Example 367, 3-amino-N-[(6S)-2-[(1R,5S)-9,9-difluoro-2,7-diazabicyclo[3.3.1]nonan-7-yl]-5,6,7,8-tetrahydroquinolin-6-yl]-6-methylthieno[2,3-b]pyridine-2-carboxamide] here?
The IC50 was 0.001 to 0.05 µM.

For CCn1ccc2cc(C(=O)N[C@H]3CCc4nc(N5C[C@@H](N)C6(COC6)C5)ccc4C3)cnc21 [Example 404, N-[(6S)-2-[(8S)-8-amino-2-oxa-6-azaspiro[3.4]octan-6-yl]-5,6,7,8-tetrahydroquinolin-6-yl]-1-ethyl-1H-pyrrolo[2,3-b]pyridine-5-carboxamide], which IC50 is on record?
The IC50 was 0.2 to 2 µM.

For Cc1ccc2c(N)c(C(=O)N[C@H]3COc4cc(N5C[C@@H](N)[C@]6(CCOC6)C5)ccc4C3)sc2n1 [Example 432, 3-amino-N-[(3R)-7-[(5S,9S)-9-amino-2-oxa-7-azaspiro[4.4]nonan-7-yl]-3,4-dihydro-2H-1-benzopyran-3-yl]-6-methylthieno[2,3-b]pyridine-2-carboxamide], which IC50 is on record?
Its IC50 is 0.001 to 0.05 µM.

With Cc1ccc2c(N)c(C(=O)N[C@H]3CCc4nc(N5CCN[C@@H](C(F)F)C5)ccc4C3)sc2n1 [Example 375, 3-amino-N-[(6S)-2-[(3R)-3-(difluoromethyl)piperazin-1-yl]-5,6,7,8-tetrahydroquinolin-6-yl]-6-methylthieno[2,3-b]pyridine-2-carboxamide] as the molecule, how does the IC50 read?
The IC50 was 0.05 to 0.2 µM.

CCn1ccc2cc(C(=O)N[C@H]3CCc4nc(N5C[C@@H](N)[C@H](C(F)F)C5)ccc4C3)cnc21 [Example 371, N-[(6S)-2-[(3S,4R)-3-amino-4-(difluoromethyl)pyrrolidin-1-yl]-5,6,7,8-tetrahydroquinolin-6-yl]-1-ethyl-1H-pyrrolo[2,3-b]pyridine-5-carboxamide] was tested. Which IC50 did it give?
The IC50 was 0.2 to 2 µM.

CO[C@]1(C)CN(c2ccc3c(n2)CC[C@H](NC(=O)c2sc4nc(C)ccc4c2N)C3)C[C@@H]1N [Example 427, 3-amino-N-[(6S)-2-[(3R,4S)-4-amino-3-methoxy-3-methylpyrrolidin-1-yl]-5,6,7,8-tetrahydroquinolin-6-yl]-6-methylthieno[2,3-b]pyridine-2-carboxamide] was tested. Which IC50 did it give?
The IC50 was 0.05 to 0.2 µM.

With CCn1ccc2cc(C(=O)N[C@H]3CCc4nc(N5C[C@H](N)[C@@H](C(F)(F)F)C5)ccc4C3)cnc21 [Example 421, N-[(6S)-2-[(3R,4S)-3-amino-4-(trifluoromethyl)pyrrolidin-1-yl]-5,6,7,8-tetrahydroquinolin-6-yl]-1-ethyl-1H-pyrrolo[2,3-b]pyridine-5-carboxamide] as the molecule, how does the IC50 read?
The IC50 was 0.05 to 0.2 µM.

How did the IC50 turn out when Cc1ccc2c(N)c(C(=O)N[C@H]3CCc4nc(N5C[C@H](C(F)F)[C@@H](N)C5)ncc4C3)sc2n1 [Example 380, 3-amino-N-[(6S)-2-[(3R,4S)-3-amino-4-(difluoromethyl)pyrrolidin-1-yl]-5,6,7,8-tetrahydroquinazolin-6-yl]-6-methylthieno[2,3-b]pyridine-2-carboxamide] was run?
The IC50 was 0.05 to 0.2 µM.

With Cc1ccc2c(N)c(C(=O)N[C@H]3CCc4nc(N5CC6(C[C@@H](N)CO6)C5)ccc4C3)sc2n1 [Example 398, 3-amino-N-[(6S)-2-[(7R)-7-amino-5-oxa-2-azaspiro[3.4]octan-2-yl]-5,6,7,8-tetrahydroquinolin-6-yl]-6-methylthieno[2,3-b]pyridine-2-carboxamide] as the molecule, how does the IC50 read?
The IC50 was 0.05 to 0.2 µM.

CO[C@H]1CN(c2ncc3c(n2)CC[C@@H](NC(=O)c2sc4nc(C)ccc4c2N)C3)C[C@@H]1N [Example 187, 3-amino-N-[(6R)-2-[(3S,4S)-3-amino-4-methoxypyrrolidin-1-yl]-5,6,7,8-tetrahydroquinazolin-6-yl]-6-methylthieno[2,3-b]pyridine-2-carboxamide] was tested. Which IC50 did it give?
The IC50 was 0.2 to 2 µM.
